Experimental data as given in patent US9084770B2, “Modulation of insulin like growth factor I receptor expression in cancer” (Antisense Therapeutics, Ltd., priority 2008, dated 2015).

Each substance was assayed on human IGF-IR mRNA (assay: Antisense inhibition of human IGF-IR mRNA levels by quantitative RT-PCR (Table 1)). Details: as shown in Table 1.
Assay type: cell-based
Parameters: %INHIB (human IGF-IR mRNA levels): concentration or dose not given beside the values
Source text: Treatment of A549 cell cultures with oligonucleotides targeting IGF-IR is as described in WO 2004/072284.
Quantitation of IGF-IR mRNA levels was accomplished by RT-PCR using the ABI PRISM (trademark) 7600, 7700, or 7900 Sequence Detection System (PE-Applied Biosystems, Foster City, Calif.) according to manufacturer's instructions. This is a closed-tube, non-gel-based, fluorescence detection system which allows high-throughput quantitation of PCR products in real-time. As opposed to standard PCR in which amplification products are quantitated after the PCR is completed, products in real-time quantitative PCR are quantitated as they accumulate. This is accomplished by including in the PCR reaction an oligonucleotide probe that anneals specifically between the forward and reverse PCR primers, and contains two fluorescent dyes. A reporter dye (e.g., FAM or JOE, obtained from either PE-Applied Biosystems, Foster City, Calif., Operon Technologies Inc., Alameda, Calif. or Integrated DNA Technologies Inc., Coralville, Iowa) is attached to the 5′-end of the probe and a quencher dye (e.g., TAMRA, obtained from either PE-Applied Biosystems, Foster City, Calif., Operon Technologies Inc., Alameda, Calif. or Integrated DNA Technologies Inc., Coralville, Iowa) is attached to the 3′-end of the probe. When the probe and dyes are intact, reporter dye emission is quenched by the proximity of the 3′ quencher dye. During amplification, annealing of the probe to the target sequence creates a substrate that can be cleaved by the 5′-exonuclease activity of Taq polymerase. […] With each cycle, additional reporter dye molecules are cleaved from their respective probes, and the fluorescence intensity is monitored at regular intervals by laser optics built into the ABI PRISM (trademark) Sequence Detection System. In each assay, a series of parallel reactions containing serial dilutions of mRNA from untreated control samples generates a standard curve that is used to quantitate the percent inhibition after antisense oligonucleotide treatment of test samples.
PCR reagents were obtained from Invitrogen Corporation, (Carlsbad, Calif.). RT-PCR reactions were carried out by adding 20 μL PCR cocktail (2.5×PCR buffer minus MgCl2, 6.6 mM MgCl2, 375 μM each of dATP, dCTP, […] and dGTP, 375 nM each of forward primer and reverse primer, 125 nM of probe, 4 Units RNAse inhibitor, 1.25 Units PLATINUM (registered trademark) Taq, 5 Units MuLV reverse transcriptase, and 2.5×ROX dye) to 96-well plates containing 30 μL total RNA solution (20-200 ng). The RT reaction was carried out by incubation for 30 minutes at 48° C. Following a 10 minute incubation at 95° C. to activate the PLATINUM (trademark) Taq, 40 cycles of a two-step PCR protocol were carried out: 95° C. for 15 seconds (denaturation) followed by 60° C. for 1.5 minutes (annealing/extension).
Gene target quantities obtained by RT-PCR are normalized using either the expression level of GAPDH, a gene whose expression is constant, or by quantifying total RNA using RiboGreen (trademark) (Molecular Probes, Inc. Eugene, Oreg.). GAPDH expression is quantified by RT-PCR, by being run simultaneously with the target, multiplexing, or separately. Total RNA is quantified using RiboGreen (trademark) RNA quantification reagent (Molecular Probes, Inc. Eugene, Oreg.). Methods of RNA quantification by RiboGreen (trademark) are taught in Jones et al., 1998.
Probes and primers to human IGF-IR were designed to hybridize to the IGF-IR nucleotide sequence, using published sequence information (GenBank accession number NM000875 (SEQ ID NO:76) or M69229 (SEQ ID NO:77) which is the 5′ untranslated of the IGF-IR gene sequence (see FIG. 6).
In accordance with the present invention, a series of antisense compounds were designed to target different regions of the human IGF-IR mRNA or the 5′ untranslated region, using published sequences set forth in NM000875 (SEQ ID NO:77) and M69229 (SEQ ID NO:76). […]

Row | Substance | inhibition of IGF-IR expression (lead compounds)
1 | 323737 (antisense CTGCTTCGGCTGGACATGGT; listed as DNA, chemistry not fully specified) [compound 323737] | demonstrated inhibition
2 | 323744 (antisense CGTGGTTGCAGCTGTGGATA; listed as DNA, chemistry not fully specified) [compound 323744] | demonstrated inhibition
3 | 323747 (antisense CCAGCTTCTCAGCCTCGTGG; listed as DNA, chemistry not fully specified) [compound 323747] | demonstrated inhibition
4 | 323762 (antisense GCCTTGTGTCCTGAGTGTCT; listed as DNA, chemistry not fully specified) [compound 323762] | demonstrated inhibition
5 | 323767 (antisense CCAGCGTGTCTCTCAAATGG; listed as DNA, chemistry not fully specified) [compound 323767] | demonstrated inhibition

Same assay, conditions: quantitative RT-PCR; averages from 3 experiments

Row | Substance | %INHIB (human IGF-IR mRNA levels)
6 | 323732 (antisense GTGAGGGTCACAGCCTTGAC; listed as DNA, chemistry not fully specified) [compound 323732] | 59%
7 | 323733 (antisense CCATGGTGAGGGTCACAGCC; listed as DNA, chemistry not fully specified) [compound 323733] | 78%
8 | 323734 (antisense TTGGTGCGAATGTACAAGAT; listed as DNA, chemistry not fully specified) [compound 323734] | 61%
9 | 323735 (antisense ATTTTGTCTTTGGAGCAGTA; listed as DNA, chemistry not fully specified) [compound 323735] | 65%
10 | 323736 (antisense AGGAAATTCTCAAAGACTTT; listed as DNA, chemistry not fully specified) [compound 323736] | 43%
11 | 323737 (antisense CTGCTTCGGCTGGACATGGT; listed as DNA, chemistry not fully specified) [compound 323737] | 84%
12 | 323738 (antisense TGTTCCTGCTTCGGCTGGAC; listed as DNA, chemistry not fully specified) [compound 323738] | 76%
13 | 323739 (antisense CTGCTCTCAAAGAAAGGGTA; listed as DNA, chemistry not fully specified) [compound 323739] | 58%
14 | 323740 (antisense CCACTCTGCTCTCAAAGAAA; listed as DNA, chemistry not fully specified) [compound 323740] | 0%
15 | 323741 (antisense GTTATCCACTCTGCTCTCAA; listed as DNA, chemistry not fully specified) [compound 323741] | 57%
16 | 323742 (antisense TCCTTGTTATCCACTCTGCT; listed as DNA, chemistry not fully specified) [compound 323742] | 58%
17 | 323743 (antisense TTGCAGCTGTGGATATCGAT; listed as DNA, chemistry not fully specified) [compound 323743] | 53%
18 | 323744 (antisense CGTGGTTGCAGCTGTGGATA; listed as DNA, chemistry not fully specified) [compound 323744] | 85%
19 | 323745 (antisense AGCCTCGTGGTTGCAGCTGT; listed as DNA, chemistry not fully specified) [compound 323745] | 75%
20 | 323746 (antisense TTCTCAGCCTCGTGGTTGCA; listed as DNA, chemistry not fully specified) [compound 323746] | 62%
21 | 323747 (antisense CCAGCTTCTCAGCCTCGTGG; listed as DNA, chemistry not fully specified) [compound 323747] | 85%
22 | 323748 (antisense GCAGCCCAGCTTCTCAGCCT; listed as DNA, chemistry not fully specified) [compound 323748] | 77%
23 | 323749 (antisense GCGCTGCAGCCCAGCTTCTC; listed as DNA, chemistry not fully specified) [compound 323749] | 71%
24 | 323750 (antisense TTTAAAAAGATGGAGTTTTC; listed as DNA, chemistry not fully specified) [compound 323750] | 8%

Row | Substance | %INHIB (human IGF-IR mRNA levels)
25 | 323751 (antisense GCCACTTTAAAAAGATGGAG; listed as DNA, chemistry not fully specified) [compound 323751] | 77%
26 | 323752 (antisense TCCTGTCTGGACACACATTC; listed as DNA, chemistry not fully specified) [compound 323752] | 66%
27 | 323753 (antisense AAGAACACAGGATCTGTCCA; listed as DNA, chemistry not fully specified) [compound 323753] | 38%
28 | 323754 (antisense CATAGAAGAACACAGGATCT; listed as DNA, chemistry not fully specified) [compound 323754] | 33%
29 | 323755 (antisense GGAACGTACACATCAGCAGC; listed as DNA, chemistry not fully specified) [compound 323755] | 36%
30 | 323756 (antisense ACTCCTTCATAGACCATCCC; listed as DNA, chemistry not fully specified) [compound 323756] | 26%
31 | 323757 (antisense CGGAGATAACTTTTGAGATC; listed as DNA, chemistry not fully specified) [compound 323757] | 35%
32 | 323758 (antisense GAGACCGGAGATAACTTTTG; listed as DNA, chemistry not fully specified) [compound 323758] | 29%
33 | 323759 (antisense ATTTTGACTGTGAAATCTTC; listed as DNA, chemistry not fully specified) [compound 323759] | 13%
34 | 323760 (antisense GCGATCTCCCAGAGGACGAC; listed as DNA, chemistry not fully specified) [compound 323760] | 72%
35 | 323761 (antisense TGTAGTAGAAGGAGACCTCC; listed as DNA, chemistry not fully specified) [compound 323761] | 26%
36 | 323762 (antisense GCCTTGTGTCCTGAGTGTCT; listed as DNA, chemistry not fully specified) [compound 323762] | 84%
37 | 323763 (antisense ATCCAAGGATCAGCAGGTCG; listed as DNA, chemistry not fully specified) [compound 323763] | 69%
38 | 323764 (antisense GCTGCTTGCATATTGAAAAA; listed as DNA, chemistry not fully specified) [compound 323764] | 77%
39 | 323765 (antisense AAAAAGCTGCTTGCATATTG; listed as DNA, chemistry not fully specified) [compound 323765] | 74%
40 | 323766 (antisense GCCCATGTCAGTTAAGGGTT; listed as DNA, chemistry not fully specified) [compound 323766] | 69%
41 | 323767 (antisense CCAGCGTGTCTCTCAAATGG; listed as DNA, chemistry not fully specified) [compound 323767] | 84%
42 | 323768 (antisense GGAGTTTAAAGGACAGTGCC; listed as DNA, chemistry not fully specified) [compound 323768] | 59%
